Test results from patent US20170360805A1, “MOTOR-ASSOCIATED NEURODEGENERATIVE DISEASE AND METHODS OF TREATMENT” (priority 2016, published 2017).

How the values were obtained:
NSC-34 cells = experiment: Glutamate excitotoxicity model, MTT cell viability, NSC-34 cells; assay type: cell-based, mouse; conditions: 24 hours, 0.01-10 μM, FIG. 7A
Method: (§1) FIG. 7A-FIG. 7B illustrate the effects of 15d-PGJ2 at four different concentrations (0.01, 0.1, 1, and 10 μM) on glutamate induced neurotoxicity in NSC-34 cells (left-FIG. 7A) and primary rat cortical neurons (right-FIG. 7B). Cell viability was determined by the MTT assay. Data are shown as mean+SEM (n=6 or 12) as percentage of vehicle control (VC). Statistical significance is indicated by *<0.05 and **<0.01 as determined by One-Way ANOVA followed by Dunnett's Multiple Comparison Test, in comparison to glutamate lesion (L or Glu).
Viability of cultures was determined by the MTT assay using a plate-reader (570 nm). This assay allows the measurement of the mitochondrial dehydrogenase activity which reduces yellow MTT to dark blue formazan crystals. Since this reaction was catalyzed in living cells, this assay was used for the determination of cell viability. MTT solution was added to each well in a final concentration of 0.5 mg/ml. After 2 hours the MTT containing medium was aspired. Cells were lysed in 3% SDS and the formazan crystals were dissolved in isopropanol/HCl. Optical density was measured with a plate-reader at wavelength 570 nm. Cell survival rate was expressed as optical density (OD). Values were calculated as percent of control values (vehicle control).
15d-PGJ2 was tested in a glutamate excitotoxicity model, a model of ALS. […]

[1] = test system: primary rat cortical neurons; experiment: Glutamate excitotoxicity model, MTT cell viability, primary rat cortical neurons; assay type: cell-based; conditions: 24 hours, 0.01-10 μM, FIG. 7B
Method: as §1
(§2) Primary cortical neurons were prepared from time mated Sprague Dawley rats. Animals were sacrificed and embryos were dissected in Calcium and Magnesium free Hanks Balanced Salt Solution (CMF-HBSS) containing 15 mM HEPES and 10 mM NaHCO3, pH 7.2. Embryos were decapitated, skin and skull gently removed and cortical hemispheres were separated. […] Cells were counted in a hemacytometer and 4×10^4 cells per well were seeded on poly-D-lysine pre-coated 96-well plates. […]
Viability of cultures was determined by the MTT assay using a plate-reader (570 nm). […] Optical density was measured with a plate-reader at wavelength 570 nm. Cell survival rate was expressed as optical density (OD). Values were calculated as percent of control values (vehicle control). […]

[2] = test system: TDP43 stress granule formation of U2OS cells expressing GFP-labeled human TDP43; experiment: TDP43 stress granule assay (arsenite challenge, fluorescence imaging); assay type: cell-based; conditions: Example 2, FIG. 4; 0.01, 0.1, 1 and 10 μM, 24 h pre-incubation, sodium arsenite 250 μM 120 min; Student's t Test vs arsenite control
M3 network genes = experiment: Validation of M3 network activation by RNA sequencing; assay type: cell-based; conditions: 1 μM, primary rat cortical neurons, no glutamate lesion, FIG. 5
Method: Bioinformatics predictions of M3 network activation from isoflupredone was validated in naïve neuronal cells (primary rat cortical neurons).
In parallel, 5 different test items and 2 reference items at 1 concentration each were applied to primary rat cortical neurons from […] of Sprague Dawley rats. The compounds were incubated for 8 days. […] Cell viability was determined by MTT and RNA was isolated. A number of ≧3 technical replicates were used.
Test item 1: isoflupredone (1 micromolar)
as §2
Messenger RNA was extracted from the cells and sequencing libraries were prepared using the TruSeq kit and poly-A selection. The resulting libraries were sequenced at a depth of 30 million reads per sample using single-ended 75 bp reads.

Row | SMILES | effect on glutamate induced neurotoxicity (cell viability, MTT) (NSC-34 cells) | effect on glutamate induced neurotoxicity (cell viability, MTT) [1] | aggregation of TDP43 compared to the negative control (mean number of fluorescent aggregates per cell) [2] | activation of M3 network genes (pattern of activation) (M3 network genes)
1 | CCCCC/C=C\C=C1\C(=O)C=CC1C/C=C\CCCC(=O)O (centres unmarked) [15d-PGJ2, 15-Deoxy-Δ12,14-prostaglandin J2] | neuroprotective effect | neuroprotective effect |  | 
2 | CC(=O)[C@H]1CC[C@H]2[C@@H]3C[C@H](C)C4=CC(=O)CC[C@]4(C)[C@H]3[C@@H](O)C[C@]12C [medrysone] |  |  | did not show a statistically significant effect | 
3 | C[C@]12C=CC(=O)C=C1CC[C@H]1[C@@H]3CC[C@](O)(C(=O)CO)[C@@]3(C)C[C@H](O)[C@@]12F [isoflupredone, (11β)-9-Fluoro-11,17,21-trihydroxypregna-1,4-diene-3,20-dione] |  |  | statistically significant decrease | largely up-regulation
